From ChEMBL document CHEMBL1201862, “PubChem BioAssay data set” (2004)
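Cultured in 96-well plates, cells were exposed to test compound for 48 hours across five concentrations. GI50 marks 50% less growth.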 Calls of active or inactive are those of the source. Cut-off read from the data, not from the text of the source: active = GI50 up to about 1.1 µM and inactive = higher.

Legend:
Test in all cases: NCI tumour cell line growth inhibition, 48 h
NCI-H460 = test system: NCI-H460
HCT-15 = test system: HCT-15
UACC-62 = test system: UACC-62
RXF 393 = test system: RXF 393
SF-539 = test system: SF-539
DLD-1 = test system: DLD-1
SK-MEL-5 = test system: SK-MEL-5
A549 = test system: A549
RPMI-8226 = test system: RPMI-8226
SR = test system: SR
SF-295 = test system: SF-295
SK-OV-3 = test system: SK-OV-3
HOP-62 = test system: HOP-62
786-0 = test system: 786-0
KM12 = test system: KM12

SMILES	GI50 (NCI-H460)	GI50 (HCT-15)	GI50 (UACC-62)	GI50 (RXF 393)	GI50 (SF-539)	GI50 (DLD-1)	GI50 (SK-MEL-5)	GI50 (A549)	GI50 (RPMI-8226)	GI50 (SR)	GI50 (SF-295)	GI50 (SK-OV-3)	GI50 (HOP-62)	GI50 (786-0)	GI50 (KM12)
CCN(CC)CCSc1c2ccccc2nc2cc(NCC(=O)Nc3ccccc3-c3ccccc3NC(=O)CNc3ccc4c(SCCN(CC)CC)c5ccccc5nc4c3)ccc12	> 100 µM (inactive)	> 100 µM	> 100 µM (inactive)	> 100 µM (inactive)	> 100 µM (inactive)	> 100 µM (inactive)	> 100 µM (inactive)	> 100 µM (inactive)	53.7 µM (inactive)	34.1 µM (inactive)	> 100 µM (inactive)	> 100 µM (inactive)	> 100 µM (inactive)	> 92.9 µM (inactive)	> 74.8 µM (inactive)
C[C@@H]1OC2(O)[C@H]3CCCN3S(=O)(=O)CCN2C1=O (stereo not given in full)	> 100 µM (inactive)	> 100 µM	> 100 µM (inactive)	> 100 µM (inactive)	> 100 µM (inactive)	> 100 µM (inactive)	> 100 µM (inactive)	> 100 µM (inactive)	> 100 µM (inactive)	> 100 µM (inactive)	> 100 µM (inactive)	> 100 µM (inactive)	> 100 µM (inactive)	> 100 µM (inactive)	> 100 µM (inactive)
O=c1[nH]c(=O)n(C2CC(O)C(O)C(CO)O2)cc1F (stereo not given)	> 100 µM (inactive)	> 100 µM	> 100 µM (inactive)	> 100 µM (inactive)	> 100 µM (inactive)	> 100 µM (inactive)	–	> 100 µM (inactive)	> 100 µM (inactive)	–	> 100 µM (inactive)	> 100 µM (inactive)	> 100 µM (inactive)	> 100 µM (inactive)	> 100 µM (inactive)
C1=C2/CC[C@H](Sc3ccccc3)C2C2(CCCCC/1)OCCO2 (stereo not given in full)	21.5 µM (inactive)	–	16.5 µM (inactive)	15.7 µM (inactive)	41.8 µM (inactive)	33 µM (inactive)	–	–	17.6 µM (inactive)	10.7 µM (inactive)	27.5 µM (inactive)	–	19.3 µM (inactive)	42.4 µM (inactive)	26.5 µM (inactive)
Cc1cccc(C(C)(C)C)c1NC(=O)C(=O)C(C(=O)/C=C\c1ccccc1)C1OC(=O)c2ccccc21 (stereo not given)	> 100 µM (inactive)	> 100 µM	> 100 µM (inactive)	> 100 µM (inactive)	> 100 µM (inactive)	> 100 µM (inactive)	> 100 µM (inactive)	> 100 µM (inactive)	> 100 µM (inactive)	> 100 µM (inactive)	> 100 µM (inactive)	> 100 µM (inactive)	> 100 µM (inactive)	> 100 µM (inactive)	> 100 µM (inactive)
COC(=O)/C(=N\NC(=O)C[N+](C)(C)C)C(C(=O)OC)C(=O)C(=O)Nc1ccccc1C(N)=O (stereo not given)	> 100 µM (inactive)	> 100 µM	> 100 µM (inactive)	> 100 µM (inactive)	> 100 µM (inactive)	> 100 µM (inactive)	> 100 µM (inactive)	> 100 µM (inactive)	> 100 µM (inactive)	> 100 µM (inactive)	> 100 µM (inactive)	> 100 µM (inactive)	> 100 µM (inactive)	> 100 µM (inactive)	> 100 µM (inactive)
CN(C)c1ccc2c(=O)c3ccccc3oc2n1	> 100 µM (inactive)	> 100 µM	> 100 µM (inactive)	> 100 µM (inactive)	–	73.5 µM (inactive)	38.6 µM (inactive)	> 100 µM (inactive)	> 100 µM (inactive)	–	> 100 µM (inactive)	> 100 µM (inactive)	56.6 µM (inactive)	> 100 µM (inactive)	69.7 µM (inactive)
CN(C)c1ccc(/C=C2\CNC/C(=C\c3ccc(N(C)C)cc3)C2=O)cc1	15.5 µM (inactive)	4.46 µM	34.5 µM (inactive)	24 µM (inactive)	59.2 µM (inactive)	18.9 µM (inactive)	65.5 µM (inactive)	27.4 µM (inactive)	54.6 µM (inactive)	8.81 µM (inactive)	76.4 µM (inactive)	> 100 µM (inactive)	> 100 µM (inactive)	16.8 µM (inactive)	> 10 µM (inactive)
COc1ccc([Se]c2ccc(OC)cc2)cc1	> 100 µM (inactive)	68.1 µM	> 100 µM (inactive)	19.5 µM (inactive)	73.3 µM (inactive)	> 100 µM (inactive)	48.2 µM (inactive)	> 100 µM (inactive)	24.4 µM (inactive)	–	> 100 µM (inactive)	> 100 µM (inactive)	> 100 µM (inactive)	> 100 µM (inactive)	> 100 µM (inactive)
COc1ccc2cc(C(=O)c3ccccc3C(=O)O)ccc2c1	> 100 µM (inactive)	> 100 µM	> 100 µM (inactive)	> 100 µM (inactive)	–	> 100 µM (inactive)	> 100 µM (inactive)	> 100 µM (inactive)	–	> 100 µM (inactive)	> 100 µM (inactive)	> 100 µM (inactive)	> 100 µM (inactive)	> 100 µM (inactive)	> 100 µM (inactive)
O=C(O)c1ccccc1NC(=O)C1CCCCC1	66.1 µM (inactive)	> 100 µM	> 100 µM (inactive)	–	> 100 µM (inactive)	> 100 µM (inactive)	> 100 µM (inactive)	> 100 µM (inactive)	> 100 µM (inactive)	–	> 100 µM (inactive)	> 100 µM (inactive)	> 100 µM (inactive)	> 100 µM (inactive)	> 100 µM (inactive)
N#CCCN(CCC#N)c1ccc(C(=O)NN)cc1	> 100 µM (inactive)	> 100 µM	> 100 µM (inactive)	> 100 µM (inactive)	> 100 µM (inactive)	> 100 µM (inactive)	> 100 µM (inactive)	> 100 µM (inactive)	> 100 µM (inactive)	–	> 100 µM (inactive)	> 100 µM (inactive)	> 100 µM (inactive)	> 100 µM (inactive)	> 100 µM (inactive)
CC(=O)NC1C(=O)CC(c2ccccc2)N(C)C1c1ccccc1 (stereo not given)	> 100 µM (inactive)	> 100 µM	> 100 µM (inactive)	> 100 µM (inactive)	> 100 µM (inactive)	> 100 µM (inactive)	> 100 µM (inactive)	> 100 µM (inactive)	–	> 100 µM (inactive)	> 100 µM (inactive)	26.3 µM (inactive)	> 100 µM (inactive)	> 100 µM (inactive)	> 100 µM (inactive)
CCCCCCCCCCCC(=O)OCC1OC(n2cc(F)c(=O)[nH]c2=O)C(NC(=O)OCc2ccccc2)C(OC(=O)CCCCCCCCCCC)C1O (stereo not given)	> 100 µM (inactive)	> 100 µM	> 100 µM (inactive)	> 100 µM (inactive)	> 100 µM (inactive)	> 100 µM (inactive)	> 100 µM (inactive)	> 100 µM (inactive)	> 100 µM (inactive)	> 100 µM (inactive)	> 100 µM (inactive)	> 100 µM (inactive)	> 100 µM (inactive)	> 100 µM (inactive)	> 100 µM (inactive)
